From patent US9302999B2, “Substituted triazoles as herbicides” (E. I. DU PONT DE NEMOURS AND COMPANY, priority 2012, dated 2016)

How the values were obtained:
Type in all cases: in vivo
kochia (Kochia scoparia) = test: Test D pre-/postemergence: kochia
Description: (§1) Seeds of plant species selected from bluegrass (annual bluegrass, Poa annua), blackgrass (Alopecurus myosuroides), canarygrass (Phalaris minor), chickweed (common chickweed, Stellaria media), galium (catchweed bedstraw, Galium aparine), bromegrass, downy (downy bromegrass, Bromus tectorum), field poppy (Papaver rhoeas), field violet (Viola arvensis), foxtail, green (green foxtail, Setaria viridis), deadnettle (henbit deadnettle, Lamium amplexicaule), ryegrass, Italian (Italian ryegrass, Lolium multiflorum), kochia (Kochia scoparia), lambsquarters (Chenopodium album), oilseed rape (Brassica napus), pigweed (Amaranthus retroflexus), Russian thistle (Salsola iberica), chamomile (scentless chamomile, Matricaria inodora), speedwell (bird's-eye speedwell, Veronica persica), barley, spring (spring barley, Hordeum vulgare), wheat, spring (spring wheat, Triticum aestivum), buckwheat, wild (wild buckwheat, Polygonum convolvulus), mustard, wild (wild mustard, Sinapis arvensis), oat, wild (wild oat, Avena fatua), radish, wild (wild radish, Raphanus raphanistrum), windgrass (Apera spica-venti), barley, winter (winter barley, Hordeum vulgare), and wheat, winter (winter wheat, Triticum aestivum) were planted into a silt loam soil and treated preemergence with test chemicals formulated in a non-phytotoxic solvent mixture which included a surfactant. At the same time, these same crop and weed species were planted in pots containing the planting medium comprising spaghnum peat moss, vermiculite, wetting agent and starter nutrients and treated with postemergence applications of the test chemicals formulated in the same manner. Plants ranged in height from 2 to 18 cm (1- to 4-leaf stage).
(§2) Treated plants and controls were maintained in a controlled growth environment for 14 to 21 days after which time all species were compared to controls and visually evaluated. Plant response ratings, summarized in Table D, are based on a scale of 0 to 100 where 0 is no effect and 100 is complete control. A dash (-) response means no test result.

[1] = tested on: lambsquarters (Chenopodium album); test: Test D pre-/postemergence: lambsquarters
Description: as §1, §2

[2] = tested on: mustard, wild (wild mustard, Sinapis arvensis); test: Test D pre-/postemergence: mustard, wild
Description: as §1, §2

[3] = tested on: panicum, fall (fall panicum Panicum dichotomiflorum); test: Test F pre-/postemergence: panicum, fall; settings: Postemergence, scale 0 to 100
Description: Seeds of plant species selected from corn (Zea mays), soybean (Glycine max), velvetleaf (Abutilon theophrasti), lambsquarters (Chenopodium album), poinsettia, wild (wild poinsettia, Euphorbia heterophylla), pigweed, palmer (palmer pigweed, Amaranthus palmeri), waterhemp (common waterhemp, Amaranthus rudis), surinam grass (Brachiaria decumbens), crabgrass, Brazil (Brazilian crabgrass, Digitaria horizontalis), panicum, fall (fall panicum Panicum dichotomiflorum), crabgrass, large (large crabgrass, Digitaria sanguinalis), foxtail, giant (giant foxtail, Setaria faberii), foxtail, green (green foxtail Setaria viridis), goosegrass (Eleusine indica), ragweed (common ragweed, Ambrosia elatior), barnyardgrass (Echinochloa crus-galli), sandbur (southern sandbur, Cenchrus echinatus), arrowleaf sida (Sida rhombifolia), ryegrass, Italian (Italian ryegrass, Lolium multiflorum), dayflower, VA (Virginia (VA) dayflower, Commelina virginica), field bindweed (Convolvulus arvensis), cocklebur (common cocklebur, Xanthium strumarium), morningglory (Ipomoea coccinea), nightshade (eastern black nightshade, Solanum ptycanthum), kochia (Kochia scoparia), nutsedge, yellow (yellow nutsedge, Cyperus esculentus), johnsongrass (Sorghum halepense), smartweed (ladysthumb smartweed, Polygonum persicaria), and beggarticks (hairy beggarticks, Bidens pilosa), were planted into a silt loam soil and treated preemergence with test chemicals formulated in a non-phytotoxic solvent mixture which included a surfactant. At the same time, plants selected from these crop and weed species and also pigweed (Amaranthus retroflexus), waterhemp_RES1 (ALS/Triazine resistant common waterhemp, Amaranthus rudis) and waterhemp_RES2 (ALS/HPPD resistant common waterhemp, Amaranthus rudis) were planted in pots containing a planting medium comprising spaghnum peat moss, vermiculite, wetting agent and starter nutrients treated with postemergence applications of some of the test chemicals formulated in the same manner. Plants ranged in height from 2 to 18 cm for postemergence treatments (1- to 4-leaf stage).
as §2, with “greenhouse” for “controlled growth environment”, “days,” for “days”, “E,” for “D,”

[4] = Postemergence, 31 g ai/ha, scale 0 to 100 (0 no effect, 100 complete control)
[5] = Postemergence, 62 g ai/ha, scale 0 to 100 (0 no effect, 100 complete control)
[6] = Postemergence, 125 g ai/ha, scale 0 to 100, 0 no effect, 100 complete control
[7] = Postemergence, 250 g ai/ha, scale 0 to 100 (0 no effect, 100 complete control)
[8] = Preemergence, 31 g ai/ha, scale 0 to 100, 0 no effect, 100 complete control
[9] = Preemergence, 62 g ai/ha, scale 0 to 100
[10] = Preemergence, 125 g ai/ha, scale 0 to 100
[11] = Preemergence, 250 g ai/ha, scale 0 to 100
[12] = Postemergence, 16 g ai/ha, scale 0 to 100
[13] = Preemergence, 16 g ai/ha, scale 0 to 100, 0 no effect, 100 complete control

| SMILES | Plant response rating: Kochia (kochia (Kochia scoparia); [4]) | Plant response rating: Kochia (kochia (Kochia scoparia); [5]) | Plant response rating: Kochia (kochia (Kochia scoparia); [6]) | Plant response rating: Kochia (kochia (Kochia scoparia); [7]) | Plant response rating, Kochia (kochia (Kochia scoparia); [8]) | Plant response rating, Kochia (kochia (Kochia scoparia); [9]) | Plant response rating, Kochia (kochia (Kochia scoparia); [10]) | Plant response rating, Kochia (kochia (Kochia scoparia); [11]) | Plant response rating: Lambsquarters [1, 4] | Plant response rating: Lambsquarters [1, 5] | Plant response rating: Lambsquarters [1, 6] | Plant response rating: Lambsquarters [1, 7] | Plant response rating, Lambsquarters [1, 8] | Plant response rating, Lambsquarters [1, 9] | Plant response rating: Mustard, Wild [2, 4] | Plant response rating: Mustard, Wild [2, 5] | Plant response rating: Mustard, Wild [2, 6] | Plant response rating: Mustard, Wild [2, 7] | Plant response rating, Kochia (kochia (Kochia scoparia); [12]) | Plant response rating, Lambsquarters [1, 12] | other results |
| --- | --- | --- | --- | --- | --- | --- | --- | --- | --- | --- | --- | --- | --- | --- | --- | --- | --- | --- | --- | --- | --- |
| FC(F)(F)COc1nn(-c2ccc(C(F)(F)F)cc2)nc1Cc1ccnc(C(F)(F)F)c1 [Compound 14, 4-[[5-(2,2,2-trifluoroethoxy)-2-[4-(trifluoromethyl)phenyl]-2H-1,2,3-triazol-4-yl]methyl]-2-(trifluoromethyl)pyridine] | 95 | 95 | 100 | 100 | 10 | 40 | 80 | 90 | 80 | 80 | 100 | 100 | 0 | 40 | 50 | 90 | 100 | 100 |  |  | Plant response rating, Lambsquarters [1, 10]: 60; Plant response rating, Lambsquarters [1, 11]: 75; Plant response rating, Mustard, Wild [2, 8]: 0; Plant response rating, Mustard, Wild [2, 9]: 50; Plant response rating, Mustard, Wild [2, 10]: 90; Plant response rating, Mustard, Wild [2, 11]: 95 |
| COc1nn(-c2ccc(C(F)(F)F)cc2)nc1Cc1ccnc(C(F)(F)F)c1 [Compound 15, 4-[[5-methoxy-2-[4-(trifluoromethyl)phenyl]-2H-1,2,3-triazol-4-yl]methyl]-2-(trifluoromethyl)pyridine] | 90 | 90 | 100 | 100 | 0 | 0 | 70 | 100 | 100 | 100 | 100 | 100 | 0 | 90 | 70 | 100 | 100 | 100 | 20 | 50 | Plant response rating, Lambsquarters [1, 10]: 100; Plant response rating, Lambsquarters [1, 11]: 100; Plant response rating, Mustard, Wild [2, 12]: 0; Plant response rating, Mustard, Wild [2, 8]: 100; Plant response rating, Mustard, Wild [2, 9]: 100; Plant response rating, Mustard, Wild [2, 10]: 100; Plant response rating, Mustard, Wild [2, 11]: 100 |
| Cc1nn(-c2ccc(C(F)(F)F)cn2)nc1Oc1ccnc(C(F)(F)F)c1 [Compound 23] | 80 | 85 | 90 | 95 |  |  |  |  | 30 | 80 | 100 | 100 |  |  | 40 | 85 | 100 | 100 | 20 | 30 | Plant response rating, Mustard, Wild [2, 12]: 20 |
| Cc1nn(-c2ccc(C(F)(F)F)cn2)nc1Cc1cccc(C(F)(F)F)c1 [Compound 106] | 60 | 70 | 95 | 100 | 0 | 0 | 30 | 30 | 30 | 30 | 50 | 90 | 40 | 40 | 80 | 80 | 90 | 100 | 60 | 20 | Plant response rating, Lambsquarters [1, 10]: 40; Plant response rating, Lambsquarters [1, 11]: 40; Plant response rating, Mustard, Wild [2, 12]: 20; Plant response rating, Mustard, Wild [2, 8]: 20; Plant response rating, Mustard, Wild [2, 9]: 50; Plant response rating, Mustard, Wild [2, 10]: 50; Plant response rating, Mustard, Wild [2, 11]: 60 |
| Cc1nn(-c2ccc(C(F)(F)F)cc2)nc1Oc1ccnc(C(F)(F)F)c1 [Compound 120] | 98 | 100 | 100 | 100 | 10 | 30 | 95 | 100 | 98 | 100 | 100 | 100 | 80 | 90 |  |  |  |  | 98 | 95 | Plant response rating, Kochia (kochia (Kochia scoparia); [13]): 0; Plant response rating, Lambsquarters [1, 10]: 100; Plant response rating, Lambsquarters [1, 11]: 100; Plant response rating, Mustard, Wild [2, 13]: 0; Plant response rating, Mustard, Wild [2, 9]: 90; Plant response rating, Mustard, Wild [2, 10]: 100; Plant response rating, Mustard, Wild [2, 11]: 100 |
| COc1nn(-c2ccc(C(F)(F)F)cc2)nc1Cc1ccnc(C(F)F)c1 [Compound 138] | 95 | 100 | 100 | 100 |  |  |  |  | 80 | 90 | 95 | 100 |  |  | 90 | 95 | 100 | 100 | 95 | 70 | Plant response rating, Mustard, Wild [2, 12]: 75 |
| Cc1nn(-c2ccnc(Cl)c2)nc1Cc1ccnc(C(F)(F)F)c1 [Compound 141] |  |  |  |  |  |  |  |  |  |  |  |  |  |  |  |  |  |  |  |  | Plant response rating, Panicum, Fall ([3]; 8 g ai/ha): 30; Plant response rating, Panicum, Fall ([3]; 16 g ai/ha): 50; Plant response rating, Panicum, Fall ([3]; 31 g ai/ha): 50; Plant response rating, Panicum, Fall ([3]; 62 g ai/ha): 60; Plant response rating, Panicum, Fall ([3]; 125 g ai/ha): 75 |
